In patent publication US9617289B2, “RSV antiviral compounds” (JANSSEN R&D IRELAND, priority 2012, dated 2017):
Read-outs that look alike come from different tables or passages of the source.

System: rgRSV224 virus
Experiment: Antiviral activity: inhibition of rgRSV224 (GFP-expressing RSV) replication in HeLa cells
Format: cell-based, respiratory syncytial virus
Conditions: for EC50: human respiratory syncytial virus, HeLa, 72 h
Method: Black 96-well clear-bottom microtiter plates (Corning, Amsterdam, The Netherlands) were filled in duplicate using a customized robot system with serial 4-fold dilutions of compound in a final volume of 50 μl culture medium [RPMI medium without phenol red, 10% FBS, 0.04% gentamycin (50 mg/ml) and 0.5% DMSO]. Then, 100 μl of a HeLa cell suspension (5×10^4 cells/ml) in culture medium was added to each well followed by the addition of 50 μl rgRSV224 (MOI=0.02) virus in culture medium using a multidrop dispenser (Thermo Scientific, Erembodegem, Belgium). rgRSV224 virus is an engineered virus that includes an additional GFP gene (Hallak et al, 2000) and was in-licensed from the NIH (Bethesda, Md., USA). Medium, virus- and mock-infected controls were included in each test. Cells were incubated at 37° C. in a 5% CO2 atmosphere. Three days post-virus exposure, viral replication was quantified by measuring GFP expression in the cells by a MSM laser microscope (Tibotec, Beerse, Belgium). The EC50 was defined as the 50% inhibitory concentration for GFP expression. In parallel, compounds were incubated for three days in a set of white 96-well microtitier plates (Corning) and the cytotoxicity of compounds in HeLa cells was determined by measuring the ATP content of the cells using the ATPlite kit (PerkinElmer, Zaventem, Belgium) according to the manufacturer's instructions. The CC50 was defined as the 50% concentration for cytotoxicity. SI is calculated as CC50/EC50.

[1] = read-out: pEC50, rgRSV224 (MOI=0.02) in HeLa cells, GFP expression three days post-virus exposure (converted)
[2] = read-out: RSV-wt_pEC50, rgRSV224 (MOI=0.02) in HeLa cells, GFP expression three days post-virus exposure

`O=C(Oc1ccc(F)cc1)N1CC2(C1)C(=O)N(Cc1nc3cc(Cl)ccc3n1CCCC(F)(F)F)c1ccccc12` [Compound 43, 4-fluorophenyl 1′-((5-chloro-1-(4,4,4-trifluorobutyl)-1H-benzo[d]imidazol-2-yl)methyl)-2′-oxospiro[azetidine-3,3′-indoline]-1-carboxytale] was tested, and the EC50 [1] was 0.251 nM.

In the case of `CC(C)(O)C(=O)N1CCC2(C1)C(=O)N(Cc1nc3cc(Cl)ccc3n1CCCS(C)(=O)=O)c1ccccc12` (centres unmarked) [Compound 138, 1-((5-chloro-1-(3-(methylsulfonyl)propyl)-1H-benzo[d]imidazol-2-yl)methyl)-1′-(2-hydroxy-2-methylpropanoyl)spiro[indoline-3,3′-pyrrolidlin]-2-one], the EC50 [2] is reported as 2.14 nM.

With `CC(C)(O)C(=O)N1CC2(C1)C(=O)N(Cc1nc3cc(Cl)ccc3n1CCCCO)c1ccccc12` [Compound 175, 1′-{[5-Chloro-1-(4-hydroxybutyl)-1H-benzimidazol-2-yl]methyl}-1-(2-hydroxy-2-methylpropanoyl)spiro[azetidine-3,3′-indol]-2′(1′H)-one] the EC50 [2] was 0.0741 nM.

With `CS(=O)(=O)CCCn1c(CN2C(=O)C3(CCN(c4ccc(Cl)nn4)CC3)c3ccccc32)nc2cc(Cl)ccc21` [Compound 15, 1-((5-chloro-1-(3-(methylsulfonyl)propyl)-1H-benzo[d]-imidazol-2-yl)methyl)-1′-(6-chloropyridazin-3-yl)spiro-[indoline-3,4′-piperidin]-2-one] the EC50 [1] was less than 0.158 nM.

For `CC(C)(C)OC(=O)N1CCC2(CC1)C(=O)N(Cc1nc3nc(Cl)ccc3n1CCCC(F)(F)F)c1cnccc12` [Compound 68, tert-butyl-1′-((5-chloro-1-(4,4,4-trifluorobutyl)-1H-imidazo-[4,5-b]pyridin-2-yl)methyl)-2′-oxo-1′,2′-dihydrospiro-[piperidine-4,3′-pyrrolo[2,3-c]pyridine]-1-carboxylate], the EC50 [1] was 0.501 nM.

`O=C1N(Cc2nc3nc(Cl)ccc3n2CCCC(F)(F)F)c2cnccc2C12CCOCC2` [Compound 67, 1′-((5-chloro-1-(4,4,4-trifluorobutyl)-1H-imidazo[4,5-b]-pyridin-2-yl)methyl)-2,3,5,6-tetrahydrospiro[pyran-4,3′-pyrrolo[2,3-c]pyridin]-2′(1′H)-one] showed a pEC50 (rgRSV224 (MOI=0.02) in HeLa cells, GFP expression three days post-virus exposure) of 10.3.

With `CCOP(=O)(OCC)N1CCC2(CC1)C(=O)N(Cc1nc3cc(Cl)ccc3n1CCCC#N)c1cnccc12` [Compound 115, Diethyl (1′-{[5-chloro-1-(3-cyanopropyl)-1H-benzimidazol-2-yl]methyl}-2′-oxo-1′,2′-dihydro-1H-spiro[piperidine-4,3′-pyrrolo[2,3-c]pyridin]-1-yl)phosphonate] the EC50 (read-out: RSV-wt_pEC50) was 0.0692 nM.

For `CS(=O)(=O)CCCn1c(CN2C(=O)C3(CCOCC3)c3cnccc32)cc2cc(Cl)ccc21` [Compound 57], the EC50 [1] was 83.2 nM.

For `N#CCCCn1c(CN2C(=O)C3(CCN(C(=O)OC4CC4)CC3)c3ccncc32)cc2cc(Cl)ccc21` [Compound 132, Cyclopropyl 1′-{[5-chloro-1-(3-cyanopropyl)-1H-indol-2-yl]methyl}-2′-oxo-1′,2′-dihydro-1H-spiro[piperidine-4,3′-pyrrolo[2,3-c]pyridine]-1-carboxylate], the EC50 [2] was 0.0646 nM.

`CS(=O)(=O)CCCn1c(CN2C(=O)C3(CN(c4cccnc4)C3)c3ccccc32)nc2cc(Cl)ccc21` [Compound 7, 1′-({5-chloro-1-[3-(methylsulfonyl)propyl]-1H-benzimidazol-2-yl}methyl)-1-(pyridin-3-yl)spiro[azetidine-3,3′-indol]-2′(1′H)-one] gave an EC50 [1] of 0.0251 nM.

With `CC(C)OC(=O)N1CCC2(CC1)C(=O)N(Cc1cc3cc(Cl)ccc3n1CCCC#N)c1cnccc12` [Compound 77, isopropyl 1′-((5-chloro-1-(3-cyanopropyl)-1H-indol-2-yl)-methyl)-2′-oxo-1′,2′-dihydrospiro[piperidine-4,3′-pyrrolo-[2,3-c]pyridine]-1-carboxylate] the EC50 [1] was less than 0.158 nM.

`O=C(NS(=O)(=O)N1CCC2(CC1)C(=O)N(Cc1cc3cc(Cl)ccc3n1CCCCF)c1cnccc12)C1CC1` [Compound 184, N-[(1′-{[5-Chloro-1-(4-fluorobutyl)-1H-indol-2-yl]methyl}-2′-oxo-1′,2′-dihydro-1H-spiro[piperidine-4,3′-pyrrolo[2,3-c]pyridin]-1-yl)sulfonyl]cyclopropanecarboxamide] showed an EC50 [2] of 0.219 nM.

`N#CCCCn1c(CN2c3ccccc3[C@]3(C[C@@H](NC(=O)OC4CC4)C3)C2=O)nc2cc(Cl)ccc21` [Compound 126, cyclopropyl ((1r,3r)-1-((5-chloro-1-(3-cyanopropyl)-1H-benzo[d]imidazol-2-yl)methyl)-2′-oxospiro[cyclobutane-1,3′-indolin]-3-yl)carbamate] gave an EC50 [2] of 0.257 nM.

`O=C(OCc1ccccc1)N1CCC2(CC1)C(=O)N(Cc1nc3cc(Cl)ccc3n1CCCC(F)(F)F)c1ccccc12` [Compound 50, benzyl 1-((5-chloro-1-(4,4,4-trifluorobutyl)-1H-benzo[d]-imidazol-2-yl)methyl)-2-oxospiro[indoline-3,4′-piperidine]-1′-carboxylate] was tested, and the EC50 [1] was 10 nM.

`COC(=O)N1CC2(C1)C(=O)N(Cc1cc3cc(Cl)ccc3n1CCCC#N)c1ccccc12` [Compound 60, 1′-{[5-chloro-1-(3-cyanopropyl)-1H-indol-2-yl]methyl}-2′-oxo-1′,2′-dihydro-1H-spiro[azetidine-3,3′-indole]-1-carboxylate] showed an EC50 [1] of 0.251 nM.

Molecule `CC(C)CCn1c(CN2C(=O)C3(CCN(C(=O)OC(C)(C)C)CC3)c3ccncc32)cc2cnccc21` [Compound 97, tert-Butyl 1′-{[1-(3-methylbutyl)-1H-pyrrolo[3,2-c]pyridin-2-yl]methyl}-2′-oxo-1,2′-dihydro-1H-spiro[piperidine-4,3′-pyrrolo[2,3-c]pyridine]-1-carboxylate] has an EC50 [2] of 1.45 nM.

`N#CCCCn1c(CN2C(=O)C3(CCN(C(=O)OC4CCC4)CC3)c3ccncc32)cc2cc(Cl)ccc21` [Compound 103, Cyclobutyl 1′-{[5-chloro-1-(3-cyanopropyl)-1H-indol-2-yl]-methyl}-2′-oxo-1′,2′-dihydro-1H-spiro[piperidine-4,3′-pyrrolo[2,3-c]pyridine]-1-carboxylate] was tested, and the EC50 [2] was 0.263 nM.

With `N#CCCCn1c(CN2C(=O)C3(CN(C(=O)C4(O)CC4)C3)c3ccccc32)cc2cc(Cl)ccc21` [Compound 137] the EC50 [2] was 0.107 nM.

`N#CCCCn1c(CN2C(=O)C3(CN(C(=O)[C@H](O)CO)C3)c3ccccc32)cc2cc(Cl)ccc21` [Compound 131, (R)-4-(5-chloro-2-((1-(2,3-dihydroxypropanoyl)-2′-oxospiro[azetidine-3,3′-indolin]-1′-yl)methyl)-1H-indol-1-yl)butanenitrile] showed an EC50 [2] of 0.427 nM.

`NS(=O)(=O)N1CCC2(CC1)C(=O)N(Cc1cc3cc(Cl)ccc3n1CCCCF)c1cnccc12` [Compound 111, 1′-{[5-Chloro-1-(4-fluorobutyl)-1H-indol-2-yl]methyl}-2′-oxo-1′,2′-dihydro-1H-spiro[piperidine-4,3′-pyrrolo[2,3-c]-pyridine]-1-sulfonamide] showed an EC50 [2] of 0.123 nM.

Molecule `CC(=O)OCCOC(=O)N1CCC2(CC1)C(=O)N(Cc1cc3cc(Cl)ccc3n1CCCC#N)c1cnccc12` [Compound 150, 2-(Acetyloxy)ethyl 1′-{[5-chloro-1-(3-cyanopropyl)-1H-indol-2-yl]methyl}-2′-oxo-1′,2′-dihydro-1H-spiro[piperidine-4,3′-pyrrolo-[2,3-c]pyridine]-1-carboxylate] has an EC50 [2] of 0.049 nM.

With `O=C1N(Cc2nc3nc(Cl)ccc3n2CCCC(F)(F)F)c2cnccc2C12CCCC2` [Compound 65, 1′-((5-chloro-1-(4,4,4-trifluorobutyl)-1H-imidazo[4,5-b]-pyridin-2-yl)methyl)spiro[cyclopentane-l,3′-pyrrolo[2,3-c]-pyridin]-2′(1′H)-one] the EC50 [1] was 0.631 nM.

`O=C1N(Cc2nc3cc(Cl)ccc3n2CCCC(F)(F)F)c2ccccc2C12CCNCC2` [Compound 49, 1-((5-chloro-1-(4,4,4-trifluorobutyl)-1H-benzo[d]imidazol-2-yl)methyl) spiro[indoline-3,4′-piperidin]-2-one] was tested, and the EC50 [1] was 5.01 nM.

In the case of `CC(C)(C)OC(=O)N1CC2(C1)C(=O)N(Cc1cc3cc(Cl)ccc3n1CCCC#N)c1ccccc12` [Compound 58, tert-butyl 1′-{[5-chloro-1-(3-cyanopropyl)-1H-indol-2-yl]-methyl}-2′-oxo-1′,2′-dihydro-1H-spiro[azetidine-3,3′-indole]-1-carboxylate], the EC50 [1] is reported as less than 0.2 nM.

`CC1CC2(CC(C)O1)C(=O)N(Cc1nc3cc(Cl)ccc3n1CCCS(C)(=O)=O)c1cnccc12` (centres unmarked) [Compound 174, 1′-({5-Chloro-1-[3-(methylsulfonyl)propyl]-1H-benzimidazol-2-yl}methyl)-2,6-dimethyl-2,3,5,6-tetrahydrospiro[pyran-4,3′-pyrrolo[2,3-c]pyridin]-2′(1′H)-one] showed an EC50 [2] of 17.8 nM.

Molecule `N#CCCCn1c(CN2c3ccccc3[C@]3(C[C@H](N)C3)C2=O)nc2cc(Cl)ccc21` [Compound 149, 4-(2-(((1s,3s)-3-amino-2′-oxospiro[cyclobutane-1,3′-indolin]-1′-yl)methyl)-5-chloro-1H-benzo[d]imidazol-1-yl)butanenitrile] has an EC50 [2] of 1.2 nM.
